Patent US20070282004A1, “Use of a Cyclopentenone Prostaglandin for Delaying for the Onset and/or Preventing the Continuation of Labour” (Imperial College Innovations Limited, priority 2003, published 2007)

Columns and labels:
[1] = tested on: NF-κB; assay: NF-κB-dependent luciferase reporter (κB.BG.Luc) in amnion cells; assay type: cell-based, human; settings: L− or L+ amnion cells, treated 2 h, IL-1β 1 ng/ml 6 h
Procedure: . Values are normalised for b-gal reporter activity.
(§1) Placentae were obtained from patients at term either at elective Caesarean section prior to labour (L−) or following spontaneous labour onset and vaginal delivery (L+). Amnion cells were prepared as described in Bennett et al., (1989). Briefly, the amnion was separated from the placenta, washed 3× in PBS, cut into strips, and incubated in 0.5 mM EDTA in PBS for 15 min. The strips were washed in PBS 2× and digested with 2.5 mg/ml dispase in serum-free DMEM for 35 min at 37° C. The amnion was then shaken vigorously in DMEM, 10% FCS to dissociate the cells, the remaining strips discarded, and the cell suspension pelleted at 175 g for 10 min and cultured in DMEM, 10% FCS (Sigma), 1% L-glutamine, 1% penicillin-streptomycin.
pGL3.6κB.BG.luc was the reporter construct used to assess NF-κB-mediated transcription, while the mutant pGL3.6κBmut.luc and empty pGL3.BG.luc were used as controls (Schwarzer et al., 1998).
pGL3.6κB.BG.luc: a NF-κB-dependent reporter construct with 6 copies of the NF-κB binding site. It contains two tandem repeats of the sequence 5′-GGG GAC TTT C CC TGGGGACTTTCCCTGGGGACTTTCCC-3′, which contains three copies of the decameric NF-κB binding site (underlined) upstream of a minimal β-globin promoter driving a luciferase gene.
Cells were co-transfected with the renilla vector pRL-CMV or β-galactosidase vector pCH110 as internal controls for transfection efficiencies.

[2] = tested on: PPARα; settings: GAL4 chimera transfection system (Kehrer et al., 2001); cited from earlier work
[3] = target: T1, NF-κB (Homo sapiens, UniProt P19838+Q04206); assay: EMSA of NF-κB DNA binding in nuclear extracts of treated myometrial cells; assay type: cell-based; settings: myometrial cells
T1 construct: nuclear protein extracts from myometrial cells; endogenous in cells; host or cells: primary human myometrial cells (term, passage 1-4)
Procedure: (§2) Myometrial tissue was collected at term from the upper margin of uterine incision at the time of lower segment caesarean section either prior to the onset of labour (L−) or […] (L+). L+ samples were collected by Dr Mark Johnson and Dr S Soorrana at Chelsea & Westminster Hospital. Myometrial tissue was dissected, rinsed in PBS, and digested in serum-free DMEM containing 15 mg/ml collagenase 1A (Sigma), 15 mg/ml collagenase X, and 50 mg/ml bovine serum albumin for 45 min at 37° C. The cell suspension was filtered through a cell strainer, centrifuged at 400 g for 5 min, and the pellet re-suspended and plated out in DMEM, 10% FCS (Helena BioScience), 1% L-glutainine, 1% penicillin-streptomycin. Cells were used between passage numbers 1-4.
(§3) Nuclear and cytosolic protein extracts were obtained from cultured amnion cells as described by Schreiber et al (1989). For nuclear/cytosolic fractionation, confluent cell monolayers were scraped and lysed using a buffer containing 10 mM HEPES, 10 mM KCl, 0.1 mM EDTA, 0.1 mM EGTA, 2 mM DTT, 1% (v/v) NP-40 and complete protease inhibitor tablets (CPIs, Roche), diluted to manufacturer's instructions. Cell lysates were incubated on ice for 10 min and NP-40 added to a final concentration of 1% (v/v). Lysates were vortexed for 10 secs and centrifuged for 30 secs at 4° C., 12000 g. The supernatants were retained as the cytosolic protein extracts. The pellets were resuspended in buffer containing 10 mM HEPES, 10 mM KCl, 0.1 mM EDTA, 0.1 mM EGTA, 2 mM DTT, 400 mM NaCl, 1% NP-40 (v/v) and CPIs. Samples were shaken vigorously for 15 min in an ice bath. The nuclear protein extracts were obtained in the supernatant following a 5 min centrifugation at 4° C., 12000 g.
(§4) Sense and antisense strands (175 nmole/ml each) were incubated in annealing buffer (10 mM Tris-HCl pH7.5, 100 mM NaCl, 1 mM EDTA) for 10 min at 65° C., and allowed to cool at room temperature for 2 h. 3.5 pmole double-stranded oligonucleotides were end-labelled with 0.37 MBq ^32P(γATP) by incubating for 30 min at 37° C. with T4 polynucleotide kinase. Labelled oligonucleotides were recovered by centrifugation at 3000 rpm for 2 min through MicroSpin G-25 or G-50 sephadex columns (Amersham Biosciences).
(§5) 3-5 μg protein extracts were incubated on ice for 1 h with non-radiolabelled non-specific oligonucleotide (poly(dI-dC) or Oct-1) in a binding buffer (20% (v/V) glycerol, 5 mM MgCl2, 2 mM EDTA, 50 mM Tris-HCl pH7.5, 250 mM NaCl, 2 mM DTT), followed by a 45 min incubation with 0.035 pmole ^32P(γ(ATP)-end labelled oligonucleotide probes:
(§6) Oct-1 or SP-1 consensus sequences were used as a controls for a NF-κB-specific effect. The resulting protein/DNA complexes were separated in a 4% acrylamide gel, the gel dried under vacuum at 80° C. and exposed to X-ray film. For supershift analysis, samples were incubated with 2 μg antibodies for 30 min on ice prior to incubation with oligonucleotides. Non-radio-labelled oligonucleotides were used at 100-fold molar excess for specific and non-specific competition for DNA binding. Reagents for EMSA were obtained from Promega Life Sciences, Delta House, Chilworth Research Centre, Southampton SO16 7NS, United Kingdom.

[4] = tested on: COX-2; assay: Western immunoblot of IL-1β-induced COX-2 protein in myometrial cells; assay type: cell-based, human; settings: treated 2 h, IL-1β 6 h
Procedure: as §2
Nuclear and cytosolic protein extracts were obtained from cultured amnion cells as described by Schreiber et al (1989). […]
Protein samples (20-70 μg) were mixed with Laemmli sample buffer (1:1) containing β-mercaptoethanol (5%), and boiled for 5 min. […] The blots were then incubated with HRP-conjugated secondary antibody (diluted 1:2000 in 1% non-fat milk in PBS-T buffer) for 1 h and washed three times (10 min each) in PBS-T. Signal detection was achieved using enhanced chemi-luminescence (ECL plus system, Amersham Pharmacia Biotech) according to manufacturer's instructions. […]

[5] = target: T1, NF-κB; assay: EMSA of NF-κB DNA binding in nuclear extracts of treated amnion cells; assay type: cell-based; settings: amnion cells treated with 15d-PGJ2 in the presence of the PPAR-γ inhibitor
Procedure: as §1, §3, §4, §5, §6

[6] = target: T2, PPAR-γ (Homo sapiens, UniProt P37231); settings: covalent modification of Cys285 (Leesnitzer et al., 2002); cited from earlier work
T2 sequence (P37231 1-505): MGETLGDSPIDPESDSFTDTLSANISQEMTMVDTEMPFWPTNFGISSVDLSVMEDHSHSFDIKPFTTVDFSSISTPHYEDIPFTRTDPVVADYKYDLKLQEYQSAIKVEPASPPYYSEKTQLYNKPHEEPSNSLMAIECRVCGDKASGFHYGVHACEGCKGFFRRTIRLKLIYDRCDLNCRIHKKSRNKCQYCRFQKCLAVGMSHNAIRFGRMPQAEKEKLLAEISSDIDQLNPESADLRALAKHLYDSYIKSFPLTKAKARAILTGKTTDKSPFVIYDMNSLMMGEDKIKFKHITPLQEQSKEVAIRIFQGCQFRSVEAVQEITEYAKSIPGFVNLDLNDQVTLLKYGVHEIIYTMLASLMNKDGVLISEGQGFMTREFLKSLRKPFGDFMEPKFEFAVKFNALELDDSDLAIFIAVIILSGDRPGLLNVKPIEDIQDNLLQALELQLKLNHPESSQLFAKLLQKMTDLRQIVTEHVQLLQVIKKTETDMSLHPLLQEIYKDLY

T1 sequence (Q04206 whole entry): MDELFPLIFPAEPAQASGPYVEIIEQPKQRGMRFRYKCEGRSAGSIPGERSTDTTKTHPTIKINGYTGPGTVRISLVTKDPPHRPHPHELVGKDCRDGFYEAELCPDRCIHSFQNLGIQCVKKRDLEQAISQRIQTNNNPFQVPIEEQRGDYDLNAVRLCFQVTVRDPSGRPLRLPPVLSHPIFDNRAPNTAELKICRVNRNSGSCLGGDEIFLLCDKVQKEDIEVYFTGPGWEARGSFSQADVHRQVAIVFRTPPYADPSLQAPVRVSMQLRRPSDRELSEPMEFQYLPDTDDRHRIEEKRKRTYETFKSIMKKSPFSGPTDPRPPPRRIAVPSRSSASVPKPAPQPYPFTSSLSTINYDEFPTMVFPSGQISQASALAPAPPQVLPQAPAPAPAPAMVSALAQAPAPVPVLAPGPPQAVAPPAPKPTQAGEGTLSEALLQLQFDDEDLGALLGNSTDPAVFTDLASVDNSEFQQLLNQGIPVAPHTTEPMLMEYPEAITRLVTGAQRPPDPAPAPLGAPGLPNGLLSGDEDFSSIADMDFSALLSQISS
T1 sequence (P19838 1-433 limits assumed): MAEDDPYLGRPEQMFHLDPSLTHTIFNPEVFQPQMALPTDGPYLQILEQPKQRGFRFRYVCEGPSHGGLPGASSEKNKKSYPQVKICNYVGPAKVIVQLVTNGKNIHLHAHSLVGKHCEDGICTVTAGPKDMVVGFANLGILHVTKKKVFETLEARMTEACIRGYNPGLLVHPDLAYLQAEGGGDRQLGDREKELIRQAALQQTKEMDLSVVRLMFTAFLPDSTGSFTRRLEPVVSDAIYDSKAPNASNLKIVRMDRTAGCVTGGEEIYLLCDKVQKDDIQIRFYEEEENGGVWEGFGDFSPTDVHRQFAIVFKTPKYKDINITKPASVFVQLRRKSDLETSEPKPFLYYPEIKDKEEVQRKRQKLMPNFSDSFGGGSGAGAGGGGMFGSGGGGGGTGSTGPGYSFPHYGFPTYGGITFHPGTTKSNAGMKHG

NF-κB DNA binding (EMSA) ([3]; 10-100 μM concentrations) | IL-1β-induced NF-κB DNA binding (EMSA) ([3]; treated 2 h, then IL-1β 15 min) | Alleviation of 15d-PGJ2 inhibition of NF-κB DNA binding [5] | Alleviation of 15d-PGJ2 inhibition of NF-κB DNA binding ([5]; listed as GW9662) | SMILES | IL-1β-induced NF-κB transcriptional activity (κB.BG.Luc reporter) [1] | Doses that transactivate PPARα [2] [µM] | IL-1β-induced COX-2 expression [4] | Binding to PPAR-γ [6]
had no effect | do not inhibit |  |  | Cc1cccc(Nc2cc(Cl)nc(SCC(=O)O)n2)c1C [WY-14643, reference compound] | did not | 5 to 25 | not | 
 |  | failed to alleviate | does not alleviate | O=C(Nc1ccccc1)c1cc([N+](=O)[O-])ccc1Cl [GW-9662, reference compound] |  |  |  | binds irreversibly
